Here are results for 13 molecules from ChEMBL document CHEMBL3817778, “Small molecules targeting Mcl-1: the search for a silver bullet in cancer therapy” (Medchemcomm, 2016).

pIC50, pKi: −log10 of the molar value.

Experiment [1] concerns the target T1, Induced myeloid leukemia cell differentiation protein Mcl-1 (Homo sapiens, UniProt Q07820). In words: Binding affinity to MCL1 (unknown origin) incubated for 30 mins by TR-FRET assay.
Experiment [2] addresses T1, Induced myeloid leukemia cell differentiation protein Mcl-1. In words: Inhibition of FITC-labeled Bid BH3 peptide binding to human GST-tagged MCL1 lacking C-terminal transmembrane domain expressed in Escherichia coli XL-1 Blue cells preincubated for 10 mins followed by FITC-labeled Bid BH3 peptide addition measured after 20 mins by fluorescence polarization assay. For orientation: In fluorescence polarisation assays a small probe gives low polarisation when free and higher when bound to something large.

For experiment [3], the target named is T2, Apoptosis regulator Bcl-2 (Homo sapiens, UniProt P10415). The experiment in a line: Inhibition of FITC-labeled Bid BH3 peptide binding to human GST-tagged BCL2 lacking C-terminal transmembrane domain expressed in Escherichia coli XL-1 Blue cells preincubated for 10 mins followed by FITC-labeled Bid BH3 peptide addition measured after 20 mins by fluorescence polarization assay.

Experiment [4] deals with T1, Induced myeloid leukemia cell differentiation protein Mcl-1. The experiment in a line: Inhibition of fluorescein-labeled Bid BH3 peptide (79 to 99 residues) binding to His-tagged MCL1 (171 to 327 residues) (unknown origin) expressed in Escherichia coli Bl21(DE3) cells incubated for 3 hrs by fluorescence polarization assay.
The nature of experiment [5]: Inhibition of FAM-labeled Bid BH3 peptide binding to recombinant N-terminal His8-tagged human MCL1 (209 to 327 residues)/mouse MCL1 (152 to189 residues) expressed in Escherichia coli BL21(DE3) cells preincubated for 30 mins followed by FAM-labeled Bid BH3 peptide addition measured after 20 mins by fluorescence polarization assay.
Another experiment concerns the target Bcl-2-like protein 1 (Homo sapiens, UniProt Q07817). In words: Inhibition of FAM-labeled Bim BH3 peptide binding to recombinant human N-terminal GST-tagged Bcl-XL (1 to 212 residues) expressed in Escherichia coli BL21(DE3) cells preincubated for 30 mins followed by FAM-labeled Bim BH3 peptide addition measured after 20 mins by fluorescence polarization assay.

For experiment [6], the target named is T2, Apoptosis regulator Bcl-2. The experiment in a line: Inhibition of FAM-labeled Bid BH3 peptide binding to recombinant human N-terminal GST-tagged BCL2 (1 to 34/ 92 to 207 residues) fused with human Bcl-XL expressed in Escherichia coli BL21(DE3) cells preincubated for 30 mins followed by FAM-labeled Bid BH3 peptide addition measured after 20 mins by fluorescence polarization assay.

The target of experiment [7] is T1, Induced myeloid leukemia cell differentiation protein Mcl-1. In words: Inhibition of biotinylated Bim BH3 peptide binding to GST-tagged MCL1 (unknown origin) preincubated for 15 mins followed by biotinylated Bim BH3 peptide addition measured after 2 hrs by ELISA. (ELISA stands for enzyme-linked immunosorbent assay.)
For experiment [8], the target named is Induced myeloid leukemia cell differentiation protein Mcl-1 homolog (Mus musculus, UniProt P97287). The experiment in a line: Inhibition of biotinylated Bim BH3 peptide binding to recombinant GST-tagged mouse MCL1 with N-terminal truncation of 151 residues and C-terminal truncation of 23 residues expressed in Escherichia coli BL21(DE3) cells preincubated for 1 hr followed by biotinylated Bim BH3 peptide addition measured after 1 hr by ELISA.

Experiment [9] deals with T1, Induced myeloid leukemia cell differentiation protein Mcl-1. In words: Inhibition of FAM-labeled Bid BH3 peptide binding to human recombinant MCL1 by fluorescence polarization assay relative to control.
Experiment [10] concerns the target T2, Apoptosis regulator Bcl-2. The experiment in a line: Inhibition of FAM-labeled Bid BH3 peptide binding to human recombinant BCL2 by fluorescence polarization assay relative to control.
The subject of experiment [11] is MEF. The experiment in a line: Induction of apoptosis in MEF assessed as dead cells at 10 uM after 24 hrs by Annexin V/propidium iodide staining based method relative to control. It counts as functional, Mus musculus.
For experiment [12], the system named is MEF. In words: Induction of apoptosis in […] double knock out MEF assessed as dead cells at 10 uM after 24 hrs by Annexin V/propidium iodide staining based method relative to control. It counts as functional, Mus musculus.
In experiment [13] the target is T1, Induced myeloid leukemia cell differentiation protein Mcl-1. In words: Inhibition of 5-FAM-labeled Bid BH3 peptide binding to MCL1 (unknown origin) at 50 uM by fluorescence polarization assay relative to control.
For experiment [14] the target is unchanged. In words: Inhibition of 5-FAM-labeled Bid BH3 peptide binding to MCL1 (unknown origin) by fluorescence polarization assay.
Experiment [15] can be described thus: Inhibition of FITC-labeled Bid BH3 peptide binding to GST-tagged MCL1 harboring N-terminal and C-terminal point mutant (unknown origin) expressed in Escherichia coli Bl21(DE3) cells by fluorescence polarization assay. Details: species or system Homo sapiens.
The target in experiment [16] is T2, Apoptosis regulator Bcl-2. In words: Inhibition of FITC-labeled Bim BH3 peptide binding to GST-tagged BCL2 (unknown origin) preincubated for 2 mins followed by FITC-labeled Bim BH3 peptide addition measured after 10 mins by fluorescence polarization assay.

T1 sequence (Q07820 whole entry, the tested form may be a part): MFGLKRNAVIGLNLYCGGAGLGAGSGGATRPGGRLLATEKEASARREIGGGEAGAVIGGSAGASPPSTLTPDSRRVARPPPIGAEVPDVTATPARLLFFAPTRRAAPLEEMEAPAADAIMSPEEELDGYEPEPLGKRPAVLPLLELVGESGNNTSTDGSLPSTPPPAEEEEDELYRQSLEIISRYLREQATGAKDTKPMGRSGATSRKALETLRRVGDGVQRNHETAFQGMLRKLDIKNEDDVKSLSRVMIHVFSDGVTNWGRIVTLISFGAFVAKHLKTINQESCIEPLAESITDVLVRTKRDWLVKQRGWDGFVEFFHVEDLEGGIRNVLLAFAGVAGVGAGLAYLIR
T2 sequence (P10415 whole entry, the tested form may be a part): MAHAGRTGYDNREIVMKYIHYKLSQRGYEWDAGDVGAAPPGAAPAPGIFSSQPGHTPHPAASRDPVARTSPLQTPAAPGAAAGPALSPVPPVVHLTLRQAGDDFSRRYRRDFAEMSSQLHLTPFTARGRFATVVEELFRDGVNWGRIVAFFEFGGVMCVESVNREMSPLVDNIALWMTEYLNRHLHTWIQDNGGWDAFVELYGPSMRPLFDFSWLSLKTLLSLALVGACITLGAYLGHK
Induced myeloid leukemia cell differentiation protein Mcl-1 homolog, sequence (P97287 whole entry, the tested form may be a part): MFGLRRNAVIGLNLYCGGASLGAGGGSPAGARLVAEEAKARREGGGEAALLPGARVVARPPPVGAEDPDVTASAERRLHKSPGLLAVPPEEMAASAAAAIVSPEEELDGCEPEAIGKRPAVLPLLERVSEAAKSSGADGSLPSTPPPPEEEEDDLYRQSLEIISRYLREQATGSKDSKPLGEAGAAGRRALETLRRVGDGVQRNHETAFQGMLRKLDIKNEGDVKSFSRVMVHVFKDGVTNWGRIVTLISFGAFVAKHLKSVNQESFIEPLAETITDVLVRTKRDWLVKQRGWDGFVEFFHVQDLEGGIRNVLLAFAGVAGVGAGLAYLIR
Bcl-2-like protein 1, sequence (Q07817 whole entry, the tested form may be a part): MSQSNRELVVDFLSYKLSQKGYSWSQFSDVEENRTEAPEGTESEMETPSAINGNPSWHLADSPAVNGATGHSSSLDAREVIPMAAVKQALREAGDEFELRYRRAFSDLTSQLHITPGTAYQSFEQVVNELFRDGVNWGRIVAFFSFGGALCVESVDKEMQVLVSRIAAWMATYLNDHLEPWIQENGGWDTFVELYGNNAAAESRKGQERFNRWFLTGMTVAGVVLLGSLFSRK

Broadly, the pKi is −log10 of the Ki, conventionally taken in molar units. Molecule `CC1(C)CCC(CN2CCN(c3ccc(C(=O)NS(=O)(=O)c4ccc(NCC5CCOCC5)c([N+](=O)[O-])c4)c(Oc4cnc5[nH]ccc5c4)c3)CC2)=C(c2ccc(Cl)cc2)C1` [VENETOCLAX] had a pKi in [1] of less than 6.35.
A word on the pIC50: it is the IC50 on a negative log10 scale, so that one unit is a factor of ten. As for `COC1=CC(c2cc3ccccc3[nH]2)=N/C1=C\c1[nH]c(C)cc1C` [OBATOCLAX], the results for the pIC50 in [2] and in experiment [3] were 5.54 and 5.95, respectively.
In the case of `O=C(O)CSc1cc(NS(=O)(=O)c2ccc(-c3ccc(Cl)cc3)cc2)c2ccccc2c1O`, in [4], the pIC50 is 6.77.
Turning to `CCOC(=O)C1=C(C)N=c2s/c(=C\c3cn(Cc4ccc(-c5ccccc5)cc4)c4ccccc34)c(=O)n2C1c1ccccc1` (stereo not given), the pKi in experiment [5] is 6.70; at Bcl-2-like protein 1, 7.77; in [6], 6.28.
On to `O=C1c2ccc(OS(=O)(=O)C(F)(F)F)cc2Oc2c(Cl)cc(C(=O)c3ccccc3O)n2-c2c1[nH]c(Cl)c2Cl`, for which the pIC50 in experiment [7] was 5.85.
Molecule `O=C(O)CSc1cc(NS(=O)(=O)c2ccc(Oc3ccc(F)cc3)cc2)c2ccccc2c1O` gave a pIC50 in [4] of 6.77.
Regarding `O=C(c1ccccc1O)c1[nH]c(Cl)c(Cl)c1-n1c(C(=O)c2ccccc2O)cc(Cl)c1Cl`, in [8], the pIC50 is 5.00.
For `CC(C)c1ccccc1Cc1cc(C(=O)Nc2ccc(S(=O)(=O)c3ccccc3C(C)(C)C)cc2)c(O)c(O)c1O`, the pKi in [9] and in experiment [10] was greater than 6.52 in each case.
In experiment [4], `O=C(O)CSc1cc(NS(=O)(=O)c2ccc(-c3ccc(F)cc3F)cc2)c2ccccc2c1O` gave a pIC50 of 6.77.
Take `O=C(O)CSc1cc(NS(=O)(=O)c2ccc(Br)cc2)c2ccccc2c1O`: the pKi in experiment [4] was 5.73. Also, the Activity in the experiment with MEF [11] is listed as 60%; in the experiment with MEF [12], 16%.
What is called inhibition is the relative decrease from the control value, in per cent. Low readings indicate a weak effect, high ones a strong effect. Take `O=C(Cc1cc(O)c(O)c(O)c1)NCc1ccc(C(=O)N2CCN(Cc3ccccc3-c3ccccc3)CC2)cc1`: the inhibition in experiment [13] came out at 66%. The molecule further had a pKi in [14] of 6.74.
The molecule `Cc1cs/c(=N\C2CCCCC2)n1/N=C/c1ccc(O)c(O)c1O` showed a pIC50 in experiment [15] of 5.32.
For `Cc1cc2c(C(C)C)c(O)c(O)cc2c(O)c1-c1c(C)cc2c(C(C)C)c(O)c(O)cc2c1O` [APOGOSSYPOL], in experiment [16], the pKi was 5.55.
